Where two headings read alike, the source gives them in different places. Blank lines part the entries; values can stand above or below the molecule they belong to. Ends that are not written are not given here.
Assays:
ACE = conditions: cited from earlier work
Source text: ACE inhibitors (ACEIs) inhibit ACE activity and reduce blood pressure by inhibiting the synthesis of angiotensin II or promoting the release of bradykinin. Although ACEIs, such as enalapril, captopril, and lisinopril, are widely used in hypertension treatments, synthetic ACEIs have a series of negative effects, including hypotension, cough, increased potassium levels and, angioedema. Consequently, the development of safe and effective antihypertensive drugs is important, and due to antihypertensive effects and safety, there has been an increasing interest in food-derived ACE inhibito ...

ACE (from rabbit lung) [1] = target: T1, ACE (from rabbit lung) (Oryctolagus cuniculus, UniProt P12822); test: ACE inhibition and IC50 assay (FAPGG substrate); type: biochemical
T1 construct: ACE (from rabbit lung); purchased Sigma Chemical Co. (St. Louis, MO, USA); host or cells: rabbit lung tissue
T1 sequence (P12822 34-1310): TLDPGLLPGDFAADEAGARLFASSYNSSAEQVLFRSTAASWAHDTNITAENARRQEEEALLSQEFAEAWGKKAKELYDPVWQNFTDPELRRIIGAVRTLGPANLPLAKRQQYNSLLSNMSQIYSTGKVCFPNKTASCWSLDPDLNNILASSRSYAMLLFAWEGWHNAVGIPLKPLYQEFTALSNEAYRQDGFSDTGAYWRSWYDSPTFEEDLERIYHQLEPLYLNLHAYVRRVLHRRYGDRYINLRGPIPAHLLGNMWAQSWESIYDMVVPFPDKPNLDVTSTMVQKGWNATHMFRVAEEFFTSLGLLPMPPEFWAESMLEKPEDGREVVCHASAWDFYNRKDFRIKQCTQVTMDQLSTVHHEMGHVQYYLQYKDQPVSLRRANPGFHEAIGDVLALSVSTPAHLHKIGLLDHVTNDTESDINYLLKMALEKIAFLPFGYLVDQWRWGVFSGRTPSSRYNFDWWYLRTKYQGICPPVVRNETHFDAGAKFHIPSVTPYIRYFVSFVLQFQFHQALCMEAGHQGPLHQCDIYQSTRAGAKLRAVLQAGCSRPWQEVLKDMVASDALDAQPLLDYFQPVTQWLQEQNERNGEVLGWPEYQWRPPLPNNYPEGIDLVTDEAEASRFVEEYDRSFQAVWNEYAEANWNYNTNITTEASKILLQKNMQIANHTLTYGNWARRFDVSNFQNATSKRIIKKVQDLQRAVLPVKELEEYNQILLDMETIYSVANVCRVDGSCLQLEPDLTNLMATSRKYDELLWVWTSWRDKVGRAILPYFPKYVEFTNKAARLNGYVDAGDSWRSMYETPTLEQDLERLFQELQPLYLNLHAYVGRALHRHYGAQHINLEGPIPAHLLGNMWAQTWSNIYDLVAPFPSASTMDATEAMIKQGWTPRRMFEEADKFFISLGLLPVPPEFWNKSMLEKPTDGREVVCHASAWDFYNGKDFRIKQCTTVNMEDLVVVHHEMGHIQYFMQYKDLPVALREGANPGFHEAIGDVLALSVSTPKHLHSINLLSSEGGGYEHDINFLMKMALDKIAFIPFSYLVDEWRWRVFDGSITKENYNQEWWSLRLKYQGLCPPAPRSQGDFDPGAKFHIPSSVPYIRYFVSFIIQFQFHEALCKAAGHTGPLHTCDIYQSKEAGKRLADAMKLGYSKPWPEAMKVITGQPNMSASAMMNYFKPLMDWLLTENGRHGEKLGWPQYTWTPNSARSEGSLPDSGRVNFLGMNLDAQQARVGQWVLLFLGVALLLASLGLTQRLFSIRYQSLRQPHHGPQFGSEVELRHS
Experimental: (§1) ACE inhibition was examined according to Shalaby et al. and Henda et al., with slight modifications. FAPGG and ACE were dissolved in 50 mM Tris-HCl (pH 7.5) containing 300 mM NaCl. A sample solution (40 μL) was mixed with 100 μL of 0.88 mM FAPGG solution, and the mixture was incubated at 37 °C for 5 min. To start the reaction, 60 μL of ACE solution (0.20 U/mL) was added; absorbance was measured at 340 nm and recorded every 1 min for 30 min using a SpectraMax 190 absorbance microplate reader (Molecular Devices, Sunnyvale, USA). The slope averaged over a linear interval of 10–30 min was taken as a measure of the ACE inhibitory activity. The degree of ACE inhibition was calculated according to the following equation: ACE inhibition rate (%) = [1 − (slope inhibitior/slope control)] × 100(2)
The activity of each sample was tested in triplicate. The IC50 value, the concentration of peptide required to reduce ACE activity by 50%, was determined by regression analysis of ACE inhibition (%) vs. peptide concentration.

ACE (from rabbit lung) [2] = target: T1, ACE (from rabbit lung); test: In vitro simulated gastrointestinal digestion (pepsin, then trypsin) followed by ACE inhibitory activity assay; type: in vitro ADME; conditions: for stability for pepsin and trypsin digestion: in vitro digestion, read-out ACE inhibitory activity
Experimental: as §1
In vitro digestion was performed according to the method of Cing et.al. The purified peptide sample was mixed with 0.1 M phosphate buffer (pH 2.0) and pepsin (E/S 4%, w/w); the reaction was allowed to proceed for 2 h at 37 °C and stopped by heating at 100 °C for 10 min. Subsequently, the remaining suspension was adjusted to pH 8.0 with 5 M NaOH solution and further digested with trypsin (E/S 4%, w/w); the solution was incubated at 37 °C for 2 h and then heated at 100 °C for 10 min. The protein hydrolysate was centrifuged at 8000 rpm/min for 15 min, and the supernatant was assayed for ACE inhibitory activity.

[3] = target: T2, Angiotensin I-converting enzyme (from rabbit lung) (rabbit) (UniProt P12822)
T2 sequence: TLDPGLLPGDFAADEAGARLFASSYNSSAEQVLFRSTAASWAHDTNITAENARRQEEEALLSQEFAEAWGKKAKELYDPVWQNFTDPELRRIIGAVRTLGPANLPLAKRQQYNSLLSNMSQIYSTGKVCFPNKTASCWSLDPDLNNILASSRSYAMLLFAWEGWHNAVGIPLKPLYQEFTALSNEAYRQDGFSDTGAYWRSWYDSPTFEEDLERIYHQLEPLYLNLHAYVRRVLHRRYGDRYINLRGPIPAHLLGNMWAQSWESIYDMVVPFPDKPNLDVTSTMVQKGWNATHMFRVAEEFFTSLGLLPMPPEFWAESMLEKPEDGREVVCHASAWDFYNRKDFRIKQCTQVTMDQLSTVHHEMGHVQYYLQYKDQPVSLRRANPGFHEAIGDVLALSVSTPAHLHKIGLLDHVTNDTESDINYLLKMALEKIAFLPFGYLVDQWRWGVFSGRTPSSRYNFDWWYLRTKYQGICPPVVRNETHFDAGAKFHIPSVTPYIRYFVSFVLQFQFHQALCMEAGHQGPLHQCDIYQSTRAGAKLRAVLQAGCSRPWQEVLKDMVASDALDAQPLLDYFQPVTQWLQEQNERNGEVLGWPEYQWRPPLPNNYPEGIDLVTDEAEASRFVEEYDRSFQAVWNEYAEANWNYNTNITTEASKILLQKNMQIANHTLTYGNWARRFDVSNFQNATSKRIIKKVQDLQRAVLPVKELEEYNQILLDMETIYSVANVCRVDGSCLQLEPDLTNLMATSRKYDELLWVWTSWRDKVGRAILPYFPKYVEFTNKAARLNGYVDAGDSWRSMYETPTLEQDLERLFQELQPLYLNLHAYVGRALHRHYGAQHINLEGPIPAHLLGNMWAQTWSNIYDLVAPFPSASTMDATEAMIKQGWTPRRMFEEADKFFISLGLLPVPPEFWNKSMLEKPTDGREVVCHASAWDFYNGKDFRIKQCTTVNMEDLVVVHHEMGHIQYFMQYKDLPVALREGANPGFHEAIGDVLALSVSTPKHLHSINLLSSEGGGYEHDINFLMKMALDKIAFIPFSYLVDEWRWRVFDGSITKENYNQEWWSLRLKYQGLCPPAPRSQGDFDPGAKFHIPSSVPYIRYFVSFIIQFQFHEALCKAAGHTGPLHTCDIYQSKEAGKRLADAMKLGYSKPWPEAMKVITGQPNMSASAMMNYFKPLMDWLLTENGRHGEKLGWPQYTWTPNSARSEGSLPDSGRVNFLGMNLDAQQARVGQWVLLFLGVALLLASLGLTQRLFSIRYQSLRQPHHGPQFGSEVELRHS

[4] = target: T2, Angiotensin I-converting enzyme (from rabbit lung) (rabbit); remark: listed apart in the source
[5] = peptides from Undaria pinnatifida
[6] = peptides from Porphyra yezoensis
[7] = peptides purified from Ulva rigida protein hydrolysate
[8] = peptides identified in fraction C2-8, FAPGG 0.88 mM, ACE 0.20 U/mL, 50 mM Tris-HCl pH 7.5, 300 mM NaCl, 37 °C, absorbance 340 nm, tested in triplicate
[9] = purified ACE inhibitors, same values as in μM given in mg/mL
[10] = pH 2, synthetic peptide at 0.2 mg/mL, after pepsin hydrolysis for 2 h (0.1 M phosphate buffer pH 2.0, E/S 4% w/w, 37 °C)
[11] = synthetic peptide at 0.2 mg/mL, Control (no digestion)
[12] = synthetic peptide at 0.2 mg/mL, pepsin hydrolysis for 2 h (pH 2.0, 37 °C) followed by trypsin hydrolysis for 2 h (pH 8.0, 37 °C), E/S 4% w/w each

Molecule: Ala-Ile-Tyr-Lys
IC50 (ACE; [5]): 213 µM

Molecule: Ala-Lys-Tyr-Ser-Tyr
IC50 (ACE; [6]): 1.52 µM

Molecule: Ala-Phe-Leu
IC50 (ACE; [7]): 65.8 µM

IC50 (ACE (from rabbit lung) [1]; [8]): 219 µM | IC50 (ACE (from rabbit lung) [1]; [9]): 219 µM | stability for pepsin and trypsin digestion (ACE (from rabbit lung) [2]): good stability | inhibition at 200 µg/mL (ACE (from rabbit lung) [2]; [10]): 52.98 ± 0.19% | inhibition at 200 µg/mL (ACE (from rabbit lung) [2]; [11]): 50.07 ± 0.07% | inhibition at 200 µg/mL (ACE (from rabbit lung) [2]; [12]): 51.32 ± 0.02%
Molecule: FGMPLDR [FGMPLDR, Phe-Gly-Met-Pro-Leu-Asp-Arg]

Molecule: Gln-Val-Glu-Tyr
IC50 (ACE; peptide from hydrolyzed Gracilariopsis lemaneiformis): 474 µM

Molecule: Ile-Pro
IC50 (ACE; [7]): 87.6 µM

Molecule: Ile-Tyr
IC50 (ACE; [6]): 2.69 µM

Molecule: Leu-Arg-Tyr
IC50 (ACE; [6]): 5.06 µM

Molecule: Lys-Phe-Tyr-Gly
IC50 (ACE; [5]): 90.5 µM

IC50 (ACE (from rabbit lung) [1]; [8]): 237 µM | IC50 (ACE (from rabbit lung) [1]; [9]): 236 µM | stability for pepsin and trypsin digestion (ACE (from rabbit lung) [2]): good stability | inhibition at 200 µg/mL (ACE (from rabbit lung) [2]; [10]): 56.84 ± 0.04% | inhibition at 200 µg/mL (ACE (from rabbit lung) [2]; [11]): 59.92 ± 0.04% | inhibition at 200 µg/mL (ACE (from rabbit lung) [2]; [12]): 58.63 ± 0.13%
Molecule: MELVLR [MELVLR, Met-Glu-Leu-Val-Leu-Arg]

Molecule: Met-Lys-Tyr
IC50 (ACE; [6]): 7.26 µM

Molecule: Tyr-Asn-Lys-Leu
IC50 (ACE; [5]): 21 µM

Molecule: Tyr-Lys-Tyr-Tyr
IC50 (ACE; [5]): 64.2 µM

IC50 of ACE inhibition (hydrolysis of FAPGG by ACE, absorbance at 340 nm, 37 °C, 50 mM Tris-HCl pH 7.5, 300 mM NaCl) [3]: 219 μM | ACE Inhibitory Activity (%) of the synthetic peptide at 0.2 mg/mL, after pepsin hydrolysis for 2 h [4]: 53% | ACE Inhibitory Activity (%) of the synthetic peptide at 0.2 mg/mL, after pepsin hydrolysis for 2 h followed by trypsin hydrolysis for 2 h [4]: 51.3% | ACE Inhibitory Activity (%) of the synthetic peptide at 0.2 mg/mL, control (not digested) [4]: 50.1%
Molecule: FGMPLDR [Phe-Gly-Met-Pro-Leu-Asp-Arg]

IC50 of ACE inhibition (hydrolysis of FAPGG by ACE, absorbance at 340 nm, 37 °C, 50 mM Tris-HCl pH 7.5, 300 mM NaCl) [3]: 237 μM | ACE Inhibitory Activity (%) of the synthetic peptide at 0.2 mg/mL, after pepsin hydrolysis for 2 h [4]: 56.8% | ACE Inhibitory Activity (%) of the synthetic peptide at 0.2 mg/mL, after pepsin hydrolysis for 2 h followed by trypsin hydrolysis for 2 h [4]: 58.6% | ACE Inhibitory Activity (%) of the synthetic peptide at 0.2 mg/mL, control (not digested) [4]: 59.9%
Molecule: MELVLR [Met-Glu-Leu-Val-Leu-Arg]

Reference: PMC6471128, “Preparation and Identification of ACE Inhibitory Peptides from the Marine Macroalga Ulva intestinalis” (Marine Drugs, 2019)
